A short description of data set [1]: absorbance and fluorescence spectra in DMSO. The format is physicochemical. The text has this:
The absorbance and fluorescence spectra of compounds 1-6 in dimethyl sulfoxide (DMSO) were investigated and the results are in Table 1.

Data set [2] has as its system serum albumin in monkey serum. The data set can be described thus: fluorescence response to monkey serum. The format is binding. The following applies: 10 μM in 1 mL PBS. How it is done: FIG. 18 provides a chart of fluorescence spectra changes and of compound 4 (10 μM, in 1 mL of PBS buffer solution) upon addition of different volume of monkey serum;
FIG. 19 provides a chart of fluorescent intensities (λ=505 nm) of compound 4 (10 μM, in 1 mL of PBS buffer solution) upon addition of different volume of monkey serum;
Serum albumin is known as the most abundant protein in blood serum. The probe's fluorescence response to serum albumin in real blood samples would be considered as an ideal sensing tool. In this example, 10 μM of compound 4 was dissolved in 1 mL of PBS buffer as a test solution. […] The detection limit (S/N>3) for monkey serum was calculated as 0.03 μL.

In data set [3] the target is bovine serum albumin (BSA) (Bos taurus, UniProt P02769). Put plainly: fluorescence turn-on with BSA in PBS buffer. It counts as binding. The procedure:
In the aqueous buffer (0.5% DMSO, 10 mM of PBS, pH=7.4), the BSA binding-induced fluorescence turn-on was so large that it could be easily seen by naked eye. […] The intramolecular charge transfer along the D-A conjugated backbone plays a very important role in the environment-sensitivity of the flavone. All the evidence consistently pointed to the flavone dye entering the hydrophobic site of BSA.
Generally, the detection limit can be defined as the analyte concentration at which a 10% increase in fluorescence emission can be measured.
Therefore, the detection limits of compounds 1-6 were 2.6, 0.14, 0.59, 0.09, 14, and 3.4 μg/mL, respectively. For Off/On type fluorescent sensor, the Signal-to-Noise (S/N) ratio above 3:1 is considered reliable for visual evaluation. The visual recognizable detection limits of compounds 1-6 were calculated as 78, 4.2, 17.7, 2.7, 420, and 102 μg/mL, respectively. The reference range for serum albumin concentration in human blood plasma is approximately 35-50 mg/mL. Even in fish, the concentration of serum albumins can reach 0.5-5 mg/mL. The detection limits of the compounds were much lower than serum albumin concentration, indicating the capability for actual blood sample testing.

Data set [4] addresses BSA, human serum albumin (HSA) (Bos taurus, UniProt P02769). The data set can be described thus: wash-free staining of proteins in SDS-PAGE gel. It counts as binding. The conditions noted are these: 2 hours staining, 10 mM dye, 0.3% SDS, no washing. The procedure: (§1) FIG. 20 provides fluorescence images of several proteins in electrophoresis gel stained by compound 4 before and after washing 1. BSA at 0.1 μg; 2. BSA at 1 μg; 3. BSA at 10 μg; 4. BSA at 100 μg; 5. HSA at 10 μg; 6. Fibrinogen at 10 μg; 7. Lysozyme at 10 μg; 8. Trypsin at 10 μg;
(§2) Various proteins were run on the 1-D SDS-PAGE minigels with running buffer (25 mM Tris, 192 mM glycine, 0.1% SDS pH 8.3) under 100 volts for 1.5 hrs. The minigels were then placed in the dye solution (10 mM of compound 4, 0.3% SDS, and AcOH/DMSO/H2O=5:10:85). […] Therefore, the discovered protein-staining reagent had the following advantages: (1) low interference of SDS to fluorescence, thereby eliminating the pretreatment; (2) very weak fluorescent in water and gels to eliminate the need for the washing process; (3) strong interaction with the proteins (serum albumin) to reduce the staining time; (4) a high signal-to-noise (S/N) ratio for the high contrast ratio of images.

Data set [5] has as its system BSA, human serum albumin (HSA). Put plainly: wash-free staining of proteins in SDS-PAGE gel. The format is binding. The following applies: BSA, HSA vs fibrinogen, lysozyme, trypsin, 10 μg. The procedure: as §1, §2
Where [6] appears, read: with BSA 1.0 mg/ml, 10 μM dye, 10 mM PBS, 0.5% DMSO, pH 7.4.
The mark [7] stands for this setting: without BSA, 10 μM dye, 10 mM PBS, 0.5% DMSO, pH 7.4.

Chain of bovine serum albumin (BSA) (P02769 25-607): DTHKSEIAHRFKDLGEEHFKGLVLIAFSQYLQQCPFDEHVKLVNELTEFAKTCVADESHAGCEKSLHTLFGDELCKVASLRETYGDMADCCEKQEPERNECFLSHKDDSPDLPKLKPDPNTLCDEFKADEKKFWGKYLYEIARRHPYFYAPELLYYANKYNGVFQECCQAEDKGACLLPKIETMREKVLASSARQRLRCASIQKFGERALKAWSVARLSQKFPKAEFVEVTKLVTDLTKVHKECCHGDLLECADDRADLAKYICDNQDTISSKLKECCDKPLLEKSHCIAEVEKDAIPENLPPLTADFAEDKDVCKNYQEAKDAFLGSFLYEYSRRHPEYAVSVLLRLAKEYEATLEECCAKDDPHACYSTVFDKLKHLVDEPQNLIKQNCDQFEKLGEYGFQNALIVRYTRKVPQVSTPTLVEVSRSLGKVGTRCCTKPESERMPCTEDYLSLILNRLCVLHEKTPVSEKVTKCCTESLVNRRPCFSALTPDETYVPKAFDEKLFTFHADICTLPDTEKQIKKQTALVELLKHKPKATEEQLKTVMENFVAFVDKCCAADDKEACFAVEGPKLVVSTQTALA
Chain of BSA, human serum albumin (HSA) (Bos taurus, UniProt P02769) (P02769 25-607): as above

As to `COc1c(-c2ccc(N(C)C)cc2)oc2ccc(C)cc2c1=O` [compound 4, 2-(4-(dimethylamino)phenyl)-3-methoxy-6-methyl-4H-chromen-4-one], in data set [1], the Φ worked out at 37.6%, the λabs is on record as 390 nm and the λem is 504 nm. In data set [2], the “detection limit (S/N>3) for monkey serum” value is 0.03 µL. The “fluorescence intensity enhancement at 505 nm” value in data set [2] (25 μL of serum sample) is recorded as 135 fold. In data set [3] (BSA), the “detection limit (10% increase in fluorescence emission)” value turned out to be 0.09 µg/mL and the “visual recognizable detection limit (S/N above 3:1)” value stood at 2.7 µg/mL. Moreover, the “F(+)/F(−) fluorescence intensity with BSA / without BSA” value in data set [3] (BSA 1.0 mg/ml, 10 μM dye, 10 mM PBS, 0.5% DMSO, pH 7.4) stood at 1100. In data set [3] (aqueous buffer, 0.5% DMSO, 10 mM PBS, pH 7.4), the “fluorescence in the absence of BSA” value is recorded as “almost no fluorescence”. Also, in data set [3] (setting [6]), the “λabs(+)” value is 398 nm and the “λem(+)” value was found to be 484 nm. Besides, in data set [3] (setting [7]), the “λabs(−)” value is recorded as 398 nm and the “λem(−)” value worked out at 490 nm. Besides, the “amount of BSA clearly observed in gel under a UV lamp” value in data set [4] is approximately 1 µg. Also, the “selectivity of protein staining in gel” value in data set [5] is given as “serum albumin proteins were selectively stained”.

The values above are taken from patent US9636021B2, “Flavonoid compounds of low toxicity for biological imaging applications” (The University of Akron, priority 2014, dated 2017).
